# Measurements taken from US11242343B2 (Incyte Corporation, priority 2016, dated 2022).
# Biological target: HPK1 (Homo sapiens, UniProt Q92918)
# Assay: HPK1 Kinase Binding Assay
# Settings: LanthaScreen tracer 222 binding, one hour incubation at 25° C.
# Procedure: Example A. HPK1 Kinase Binding Assay
# A stock solution of 1 mM test compound was prepared in DMSO. The compound plate was prepared by 3-fold and 11-point serial dilutions. 0.1 μL of the compound in DMSO was transferred from the compound plate to the white 384 well polystyrene plates. The assay buffer contained 50 mM HEPES, pH 7.5, 0.01% Tween-20, 5 mM MgCl2, 0.01% BSA, and 5 mM DTT. 5 μl of 4 nM active HPK1 (SignalChem M23-11G) prepared in the buffer was added to the plate. The enzyme concentration given was based on the given stock concentration reported by the vender. 5 μl of 18 nM tracer 222 (ThermoFisher PV6121) and 4 nM LanthaScreen Eu-Anti GST antibody (ThermoFisher PV5595) were added. After one hour incubation at 25° C., the plates were read on a PHERAstar FS plate reader (BMG Labtech). Ki values were determined.
# HPK1, sequence (Q92918 whole entry, looked up): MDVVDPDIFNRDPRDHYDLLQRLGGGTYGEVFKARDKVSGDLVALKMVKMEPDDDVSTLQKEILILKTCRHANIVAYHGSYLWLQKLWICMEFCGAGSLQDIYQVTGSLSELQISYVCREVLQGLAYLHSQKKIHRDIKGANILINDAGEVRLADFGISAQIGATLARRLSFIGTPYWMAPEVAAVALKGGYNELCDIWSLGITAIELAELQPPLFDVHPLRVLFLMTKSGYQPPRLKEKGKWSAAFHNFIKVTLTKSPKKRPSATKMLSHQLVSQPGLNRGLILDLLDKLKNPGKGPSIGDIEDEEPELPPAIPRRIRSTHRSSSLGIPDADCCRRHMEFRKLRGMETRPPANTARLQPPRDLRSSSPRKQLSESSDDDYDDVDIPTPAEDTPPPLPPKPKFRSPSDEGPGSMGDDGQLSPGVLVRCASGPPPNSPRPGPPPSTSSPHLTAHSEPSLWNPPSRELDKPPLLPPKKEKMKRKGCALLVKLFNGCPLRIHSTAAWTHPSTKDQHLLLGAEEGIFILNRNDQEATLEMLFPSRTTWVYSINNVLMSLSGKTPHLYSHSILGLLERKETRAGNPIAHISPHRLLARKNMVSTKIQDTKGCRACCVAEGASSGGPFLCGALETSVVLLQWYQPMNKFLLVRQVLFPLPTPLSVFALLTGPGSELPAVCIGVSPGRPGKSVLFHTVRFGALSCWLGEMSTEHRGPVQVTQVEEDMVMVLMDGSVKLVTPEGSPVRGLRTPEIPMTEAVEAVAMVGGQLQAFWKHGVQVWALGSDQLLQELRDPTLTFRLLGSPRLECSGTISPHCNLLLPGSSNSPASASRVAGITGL
row,Ki [nM],Structure (SMILES)
1,≤ 100,Cc1ccccc1-c1ccc2[nH]nc(-c3ccc(N4CCN(C)CC4)cc3)c2n1 [Example 3]
2,≤ 100,"CNC(=O)c1cccc(-c2ccc3[nH]nc(-c4ccc(N5CCN(C)CC5)cc4)c3n2)c1F [Example 41, 2-Fluoro-N-methyl-3-(3-(4-(4-methylpiperazin-1-yl)phenyl)-1H-pyrazolo[4,3-b]pyridin-5-yl)benzamide]"
3,≤ 100,"CNC1CCc2c(-c3ccc4[nH]nc(-c5ccc(N6CCN(C)CC6)cc5)c4n3)cccc21 (centres unmarked) [Example 48, N-Methyl-4-(3-(4-(4-methylpiperazin-1-yl)phenyl)-1H-pyrazolo[4,3-b]pyridin-5-yl)-2,3-dihydro-1H-inden-1-amine]"
4,≤ 100,"CN1CCN(c2ccc(-c3n[nH]c4ccc(-c5cccc6c5CCC6N)nc34)cc2)CC1 (centres unmarked) [Example 47, 4-(3-(4-(4-Methylpiperazin-1-yl)phenyl)-1H-pyrazolo[4,3-b]pyridin-5-yl)-2,3-dihydro-1H-inden-1-amine]"
5,≤ 100,"CN1CCN(c2ccc(-c3n[nH]c4ccc(-c5cnc6cnn(C)c6c5)nc34)cc2)CC1 [Example 28, 1′-Methyl-3-(4-(4-methylpiperazin-1-yl)phenyl)-1H,1′H-5,6′-bipyrazolo[4,3-b]pyridine]"
6,≤ 100,"CN1CCN(c2ccc(-c3n[nH]c4ccc(-c5cccc6c5CCC6NCc5ccccc5)nc34)cc2)CC1 (centres unmarked) [Example 50, N-Benzyl-4-(3-(4-(4-methylpiperazin-1-yl)phenyl)-1H-pyrazolo[4,3-b]pyridin-5-yl)-2,3-dihydro-1H-inden-1-amine]"
7,≤ 100,Cc1cccc(F)c1-c1nc2c(-c3ccc(N4CCN(C)CC4)nc3)n[nH]c2cc1C#N [Example 62]
8,≤ 100,"CNC(=O)c1ccc(-c2n[nH]c3cc(C#N)c(-c4c(C)cccc4F)nc23)cn1 [Example 65, 5-(6-Cyano-5-(2-fluoro-6-methylphenyl)-1H-pyrazolo[4,3-b]pyridin-3-yl)-N-methylpicolinamide]"
9,≤ 100,CN1CCN(c2ccc(-c3n[nH]c4ccc(-c5ccccc5C#N)nc34)cc2)CC1 [Example 19]
10,≤ 100,"Cc1n[nH]cc1-c1ccc2[nH]nc(-c3ccc(N4CCN(C)CC4)cc3)c2n1 [Example 34, 5-(3-Methyl-1H-pyrazol-4-yl)-3-(4-(4-methylpiperazin-1-yl)phenyl)-1H-pyrazolo[4,3-b]pyridine]"
11,≤ 100,"CN1CCN(c2ccc(-c3n[nH]c4ccc(-c5cccc(C(=O)NCc6ccncc6)c5F)nc34)cc2)CC1 [Example 43, 2-Fluoro-3-(3-(4-(4-methylpiperazin-1-yl)phenyl)-1H-pyrazolo[4,3-b]pyridin-5-yl)-N-(pyridin-4-ylmethyl)benzamide]"
12,≤ 100,CCN1CCN(c2ccc(-c3n[nH]c4cc(C#N)c(-c5c(F)ccc6c5CCNC6)nc34)cc2)CC1 [Example 75]
13,≤ 100,"CN1CCN(c2ccc(-c3n[nH]c4ccc(-c5ccccc5C(F)(F)F)nc34)cc2)CC1 [Example 5, 3-(4-(4-Methylpiperazin-1-yl)phenyl)-5-(2-(trifluoromethyl)phenyl)-1H-pyrazolo[4,3-b]pyridine]"
14,≤ 100,"CN1CCN(c2ccc(-c3n[nH]c4ccc(-c5c(F)cccc5CO)nc34)cc2)CC1 [Example 11, (3-Fluoro-2-(3-(4-(4-methylpiperazin-1-yl)phenyl)-1H-pyrazolo[4,3-b]pyridin-5-yl)phenyl)methanol]"
